Legend:
[1] = tested on: NIH3T3 cells transformed by mutated RET; details: cited from earlier work
[2] = tested on: NIH3T3 cells transformed by mutated RET; details: after injection of the cells to a nude mouse; cited from earlier work
[3] = molecular target: T1, VEGFR-2 tyrosine kinase (His6-VEGFR-2, cytoplasmic domain) (Homo sapiens, UniProt P35968); experiment: Inhibitory activity on VEGFR-2 tyrosine kinase (HTRF); format: biochemical; details: biotin-poly(GT) substrate
T1 construct: made in house; host or cells: Sf9 insect cells (baculovirus, pFastBac-HT)
Description: Cytoplasmic domain of VEGFR-2 (Genbank Accession No. L04947) is a 1.7 kb DNA fragment starting from lysine 791 and contains a stop codon, as described by Tarman et al. (Oncogene, 6(9), 1677-1683, 1991). This DNA fragment was isolated from a human placental cDNA library (obtained from Clontech Laboratories, Inc.) with two primers (obtained from TaKaRa Ex Taq™ Kit, TaKaRa) using a PCR method. This DNA fragment was cloned into a baculovirus transplace vector (pFastBac™-HT (obtained from GIBCO BRL)), to obtain a recombinant construct. An insect cell (Spodoptera frugiperda 9 (Sf9)) was transfected with it, and a VEGFR-2 recombinant baculovirus solution was prepared (preparation of the recombinant baculovirus can be found in a standard textbook (Bac-to-Bac Baculovirus Expression System (GIBCO BRL)).
To Sf9 cells (3×10^8 cells) suspended in a SF-90011 culture medium containing 2% FBS (obtained from Invitrogen Corp.), the above mentioned recombinant VEGFR-2 baculovirus solution (4 ml) was added and incubated with shaking at 27° C. for 48 hours. The recombinant VEGFR-2 baculovirus-infected cell culture was centrifuged at 4° C. at 1000 rpm for 5 minutes, and the supernatant was removed. The precipitated infected cells were suspended in 80 ml of ice-cold PBS, the suspension was centrifuged at 4° C. at 1000 rpm for 5 minutes, and the supernatant was removed. The precipitated infected cells were suspended in 40 ml of ice-cold Lysis Buffer (50 mM Tris-HCl (pH 8.5), 5 mM 2-mercaptoethanol, 100 mM KCl, 1 mM PMSF, and 1% (v/v) NP-40). This suspension was centrifuged at 4° C. at 12,000 rpm for 30 min to obtain a supernatant.
This supernatant was added to a Ni-NTA agarose column (3 ml, obtained from Qiagen) which had been equilibrated with 30 ml of Buffer A (20 mM Tris-HCl (pH 8.5), 5 mM 2-mercaptoethanol, 500 mM KCl, 20 mM imidazole, and 10% (v/v) glycerol). This column was washed sequentially with 30 ml of Buffer A, 6 ml of Buffer B (20 mM Tris-HCl (pH 8.5), 5 mM 2-mercaptoethanol, 1M KCl, and 10% (v/v) glycerol), and 6 ml of Buffer A. Then, to this column, 6 ml of Buffer C (20 mM Tris-HCl (pH 8.5), 5 mM 2-mercaptoethanol, 100 mM KCl, 100 mM imidazole, and 10% (v/v) glycerol) was added to obtain an eluate. This eluate was poured into a dialysis membrane (obtained from Spectrum Laboratories) and dialyzed with 1 liter of dialysis buffer (20 mM Tris-HCl (pH 7.5), 10% (v/v) glycerol, 1 mM DTT, 0.1 mM Na3VO4, 0.1 mM EGTA) at 4° C. overnight and stored at −80° C. until use. After the dialysis, a part of the eluate was subjected to a SDS electrophoresis, and the recombinant protein (His 6-VEGFR-2, a cytoplasmic domain of VEGFR-2 fused with 6 histidine residues on its N-terminus) detected at about 100 kDa Mw in Coomassie Brilliant Blue staining was subjected to protein quantification using BSA (obtained from Sigma Co. Ltd.) as a standard.
In each well of a 96-well round bottom plate (obtained from NUNC, product number 163320), 10 μl of a solution for kinase reaction (200 mM Hepes (pH 7.4), 80 mM MgCl2, 16 mM MnCl2, 2 mM Na3VO4), 250 ng of biotin-conjugated poly (Glu 4: Tyr 1) (biotin-poly (GT) obtained from Nihon Schering K.K.) (6 μl of 1/15 diluted solution with distilled water), 15 ng of His6-VEGFR-2 (10 μl of a 1/240 diluted solution with a 0.4% BSA solution), and a test substance solution in dimethyl sulfoxide (4 μl of 1/100 dilution with 0.1% BSA) were added to make a total volume of 30 μl. To them, 10 μl of 4 μM ATP (obtained from Sigma Co. Ltd.) diluted with distilled water was added, and the resultant was incubated for 10 minutes at 30° C., followed by addition of 10 μl of 500 mM EDTA (pH 8.0) (obtained from Wako Pure Chemical Industries, Ltd.) to obtain a kinase reaction solution.
To detect tyrosine-phosphorylated biotin-poly (GT), the Homogenous Time-Resolved Fluorescence (HTRF) method was used (Analytical Biochemistry, 269, 94-104, 1999). […]

[4] = molecular target: T2, KIT (Homo sapiens, UniProt P10721); experiment: Inhibitory action on KIT (ELISA); format: biochemical; details: recombinant human kinase
T2 construct: purchased Carna Biosciences Inc. 08-156
Method: A test compound was dissolved in dimethyl sulfoxide to make a 10 mM solution, which was stored in a dark place at 4° C. until use.
Protein tyrosine kinases (recombinant human kinases) used in the study were the following products from Carna Biosciences Inc. (Kobe, Japan).
VEGFR-1 (FLT 1) (product number: 08-189) VEGFR-3 (FLT 4) (product number: 08-190) RON (product number: 08-152) RET (product number: 08-159) KIT (product number: 08-156)
Kinase activity was measured in a mobility shift assay (MSA) method (J. Biomolecular Screening, 11, 359-368, 2006) using QuickScout Screening Assist™ (Carna Biosciences Inc., commercial kit), and enzyme-linked immunoassay (ELISA).
10 μl of the test substance solution obtained by dissolving or suspending in the assay buffer (15 mM Tris, 0.01% Tween 20, 2 mM DTT, pH 7.5) (4× final concentration), or 10 μl of a solvent (4% dimethyl sulfoxide-assay buffer) was dispensed into a DELFIA Streptavidin-coated clear plate (PerkinElmer Inc., product number 4009-0010). Then, 10 μl of an ATP/substrate/metal solution of QuickScout Screening Assist™ ELISA was added. Additionally, 20 μl of the kinase solution diluted with the assay buffer was added to initiate a reaction. For a blank, only 20 μl of the assay buffer was added. The assay method was in accordance with the protocol of QuickScout Screening Assist™ ELISA. After the reaction, the absorbance at 450 nm in each well was measured using SpectraMax (Molecular Devices, California, U.S.A).

[5] = tested on: Human umbilical vein endothelial cells (HUVECs); experiment: Growth inhibitory activity on human umbilical vein endothelial cells stimulated by VEGF; format: cell-based; details: HUVEC, 72 h, 3 days, Cell Counting Kit-8
Method: Human umbilical vein endothelial cells (HUVECs) were isolated according to the reported method (Shin-seikagaku jikken kouza “saibou baiyou gijutu (Cell culturing techniques)” p. 197-202) and incubated to confluence using an EGM-2 culture medium (obtained from Sanko Junyaku Co., Ltd.) in a 5% CO2 incubator (37° C.). The HUVECs were collected by a trypsin-EDTA treatment and washed with a culture medium (2% fetal bovine serum-supplemented Human endothelial SFM basal medium, obtained from Invitrogen Corp.), followed by suspending them in the medium to count the cell number. By diluting it with the medium, a 2×10^4 cells/ml cell suspension was prepared. The cell suspension was dispensed into a 96-well plate (obtained from FALCON) by 100 μl each, and incubated at 37° C. in a 5% CO2 incubator overnight. After the incubation, 50 μl of the test substance diluted with the medium was added to each well, and 50 μL of 80 ng/ml human recombinant VEGF (obtained from R&D systems, Inc.) diluted with the medium was added and further incubated for 3 days in the 5% CO2 incubator (37° C.). After the incubation, 20 μl of Cell Counting Kit-8 (obtained from DOJINDO Laboratories) was added to each well, which were incubated for about 2 hours in the 5% CO2 incubator (37° C.). After the incubation, the absorbance of the each well was measured using a plate reader MTP-500 (Corona Electric Co., Ltd) with a measurement wavelength of 450 nm and a control wavelength of 660 nm. A ratio of absorbance (%) of each well with the test substance against the wells without the test substance was determined, and based on this ratio, the concentration of the test substance required to inhibit 50% of cell proliferation (IC50) was determined and the results are shown in Table 2.

[6] = tested on: human thyroid cancer cell line (TT); details: subcutaneous TT model; cited from earlier work

T1 sequence (P35968 786-1356 limits assumed): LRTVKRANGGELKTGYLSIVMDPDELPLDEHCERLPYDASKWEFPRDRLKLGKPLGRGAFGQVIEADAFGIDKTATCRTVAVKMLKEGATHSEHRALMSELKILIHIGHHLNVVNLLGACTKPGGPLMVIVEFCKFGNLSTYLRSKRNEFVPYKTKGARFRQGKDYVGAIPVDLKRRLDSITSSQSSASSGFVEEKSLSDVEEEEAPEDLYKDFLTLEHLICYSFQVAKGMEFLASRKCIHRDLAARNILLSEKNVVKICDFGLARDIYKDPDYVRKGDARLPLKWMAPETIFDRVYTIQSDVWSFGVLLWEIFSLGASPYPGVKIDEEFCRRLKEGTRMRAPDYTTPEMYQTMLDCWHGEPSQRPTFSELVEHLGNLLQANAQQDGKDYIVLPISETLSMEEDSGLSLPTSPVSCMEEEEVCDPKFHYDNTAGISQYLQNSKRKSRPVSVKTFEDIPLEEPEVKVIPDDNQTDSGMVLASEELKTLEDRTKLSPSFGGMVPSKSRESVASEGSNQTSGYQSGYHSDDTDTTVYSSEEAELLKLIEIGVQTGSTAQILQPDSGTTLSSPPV
T2 sequence (P10721 26-976): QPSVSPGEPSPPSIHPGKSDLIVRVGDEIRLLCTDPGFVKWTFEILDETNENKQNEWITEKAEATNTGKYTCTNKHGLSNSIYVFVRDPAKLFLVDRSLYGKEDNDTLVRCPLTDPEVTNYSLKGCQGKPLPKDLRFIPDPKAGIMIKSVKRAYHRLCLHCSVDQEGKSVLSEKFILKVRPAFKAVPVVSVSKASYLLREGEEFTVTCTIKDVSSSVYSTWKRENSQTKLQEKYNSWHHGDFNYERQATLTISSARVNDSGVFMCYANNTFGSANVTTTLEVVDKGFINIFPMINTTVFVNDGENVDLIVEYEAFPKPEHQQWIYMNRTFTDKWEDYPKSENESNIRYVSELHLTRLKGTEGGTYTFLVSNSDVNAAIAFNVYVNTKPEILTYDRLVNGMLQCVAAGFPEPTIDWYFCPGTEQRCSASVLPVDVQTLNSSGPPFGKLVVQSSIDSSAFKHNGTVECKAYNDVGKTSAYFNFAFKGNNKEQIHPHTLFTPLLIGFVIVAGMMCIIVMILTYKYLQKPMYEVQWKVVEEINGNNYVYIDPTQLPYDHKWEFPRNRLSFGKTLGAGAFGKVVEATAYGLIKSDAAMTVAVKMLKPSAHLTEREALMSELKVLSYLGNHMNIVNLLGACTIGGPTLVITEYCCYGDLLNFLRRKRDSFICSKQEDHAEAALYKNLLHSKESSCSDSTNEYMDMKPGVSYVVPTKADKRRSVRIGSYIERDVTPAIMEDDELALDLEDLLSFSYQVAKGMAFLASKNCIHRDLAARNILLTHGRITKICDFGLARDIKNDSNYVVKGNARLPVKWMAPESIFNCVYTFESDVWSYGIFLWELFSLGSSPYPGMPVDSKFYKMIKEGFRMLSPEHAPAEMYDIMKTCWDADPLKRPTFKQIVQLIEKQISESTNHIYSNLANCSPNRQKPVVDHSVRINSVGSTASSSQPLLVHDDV

## COc1cc2c(Nc3ccc(Br)cc3F)ncnc2cc1OCC1CCN(C)CC1 [ZD6474]
[1]
  anchorage-independent growth: suppressed anchorage-independent growth
[2]
  tumorigenesis: inhibited tumorigenesis

## CN1CCN(C2CCN(C(=O)Nc3cc(Oc4ccc(NC(=O)C5(C(=O)Nc6ccc(F)cc6)CC5)c(F)c4)ccn3)CC2)CC1 [N-(2-Fluoro-4-{[2-({[4-(4-methylpiperazin-1-yl)piperidin-1-yl]carbonyl}amino)pyridin-4-yl]oxy}phenyl)-N′-(4-fluorophenyl)cyclopropane-1,1-dicarboxamide]
[3]
  IC50: 0.24 µM
[4]
  IC50: 0.1 µM
[5]
  IC50: 0.082 µM

## CNC(=O)c1cc(Oc2ccc(NC(=O)Nc3ccc(Cl)c(C(F)(F)F)c3)cc2)ccn1 [BAY 43-9006]
[6]
  tumor size: reduced a tumor size

From patent US20090227556A1, “RECEPTOR TYROSINE KINASE INHIBITORS COMPRISING PYRIDINE AND PYRIMIDINE DERIVATIVES” (Eisai R&D Management Co., Ltd., priority 2008, published 2009)
